Measurements reported in patent publication US20100113613A1, “CYCLOHEXANE POLYALCOHOL FORMULATION FOR TREATMENT OF DISORDERS OF PROTEIN AGGREGATION” (WARATAH PHARMACEUTICALS, priority 2006, published 2010).

What was measured:
[1] = Brain and CSF levels of inositols after one month ad libitum dosing (GC/MS), Example 2; assay type: in vivo, TgCRND8 mice; conditions: TgCRND8 mice, myo-cyclohexanehexyl ad libitum for one month
Protocol: Study drugs were administered either at 30 mg/kg by oral gavage, or ad libitum by dissolution in drinking water. For administration in drinking water, study drugs were dissolved at 10 mg/ml. The average amount of water taken from the bottle was 3 ml daily per animal. The average mouse weight was 33 g. […] Quantification of scyllo-cyclohexanehexyl and myo-inositol. Scyllo-cyclohexanehexyl and myo-cyclohexanehexyl levels in the brain and CSF were analyzed using gas chromatography/mass spectrometry. D-chiro-inositol was used as an internal control, as it is not present in these biological samples. Derivatization: To increase the volatility and thermal stability of these compounds and to allow for proper peak separation, these samples need to first be derivatized. The derivatization was adapted from a method presented previously (Shetty, H U, et al, 1995, Anal. Biochem. 224:279-85), where the hydroxyl groups of the cyclohexanehexyl were replaced with acetyl groups. […] Similarly, a 5-15 μl sample of CSF was mixed with 1 ml of methanol and allowed to stand at room temperature for 5 minutes. The resulting suspension was centrifuged (5 min, 5000×g) and the supernatant transferred to a glass tube (Teflon-lined cap). […] These samples were then evaporated to complete dryness (Speedvac; 60° C.). […] This mixture was flushed with dry nitrogen, securely capped and the tubes heated (80° C.; 30 min). Following derivatization, samples were cooled (RT) and the unreacted acetylating reagent evaporated using a steady stream of nitrogen gas. The derivatized products were re-dissolved (4 ml; hexane-ethyl acetate (80:20, v/v)) and washed with 1 ml of 5% sodium hydrogencarbonate solution. […] The residue was reconstituted in 100 μl; ethyl acetate. 1 μL of this was injected into the GC/MS system. A similar procedure was followed using stock concentrations of scyllo- and myo-cyclohexanehexols, which were then used to generate concentration curves (in this case the internal standard was derivatized separately and then added). GC/MS was performed using a Perkin Elmer TurboMass Autosystem XL, with a quadrupole mass spectrometer and electron ionization. Gas chromatography was performed using a 30 m×0.25 mm×0.25 μm ZB 5 (5% diphenyl/95% dimethylpolysiloxane) column, using the carrier gas Helium (1 ml/min). Samples were injected with the split set to 50 at 1 min and 0 at 5 min, the injector temperature was set at 300° C. and an initial oven temperature of 80° C. After a hold of 1 min, the temperature was ramped at 45° C./min to 187° C. and held there for 15 min. […] Sample peaks were analyzed using selected-ion monitoring, using m/z 168 for determining cyclohexanehexyl levels in the brain and CSF and m/z 373 for determining cyclohexanehexyl levels in plasma, as monitoring the larger ion reduced noise. […]

[2] = Orally administered tritiated-inositol uptake in plasma and brain (FIG. 16); assay type: in vivo
Protocol: FIG. 16. Bioavailability of scyllo- (solid line) and myo-inositol (dashed line) in plasma and brain, determined using orally administered tritiated-inositol uptake studies. […] Brain levels also rose rapidly and were maximal at 8 h and 32 h, respectively.

[3] = TgCRND8 (outbred C3H/C57B16 background), mouse, in vivo
TgCRND8 mice = conditions: despite in vitro efficacy

increase of myo-cyclohexanehexyl level in brain vs untreated ([1]; p<0.001): 20%
levels of myo-cyclohexanehexyl in CSF vs untreated ([1]; p=0.35): did not show any significant changes
time of maximal brain levels [2]: 8 h
time of peak plasma levels post administration [2]: 2 h
increase in brain myo inositol levels over untreated controls [3]: 1.2 fold
SMILES: O[C@H]1[C@H](O)[C@@H](O)[C@H](O)[C@@H](O)[C@H]1O [myo-inositol, reference compound]
efficacy for the treatment of TgCRND8 mice (TgCRND8 mice): not shown to be effective
